Experimental data reported in US20250127753A1, “PHARMACEUTICAL APPLICATION OF DIMYRICETIN-YL-DISELENIDE IN TUMORS” (Shanghai Spark Pharmaceutical Co., Ltd., priority 2023, published 2025).

Columns and labels:
T24 = experiment: In vitro cell viability (CTG), T24; format: cell-based, Human; conditions: T24 cells, 72 hours, CTG assay
Procedure: (§1) Collect cells in the exponential growth phase and count viable cells separately using a cell counter. Adjust the cell suspension to an appropriate concentration with the corresponding culture medium. Add 90 μL of the cell suspension to each well of a 96-well cell culture plate, with 3 replicate wells containing 5000 cells/well. Place the plate in an incubator at 37° C. with 5% CO2 overnight.
(§2) On the second day, add 10 μL of dimyricetin diselenide and cisplatin to the corresponding wells. The highest final concentration of dimyricetin diselenide is 300 μg/ml (i.e., 379 μM), and the highest final concentration of cisplatin is 300 μM. A total of 9 concentrations are prepared with a 3-fold dilution.
(§3) After 72 hours, detect cell viability using the CTG assay.
(§4) Using GraphPad Prism 8.0 software, an S-shaped dose-survival curve was plotted with log (inhibitor) as the x-axis and response as the y-axis, adopting the Variable slope (four parameters) model to calculate the IC50 value.

MBT-2 = experiment: In vitro cell viability (CTG), MBT-2; format: cell-based, Mouse; conditions: MBT-2 cells, 72 hours, CTG assay
Procedure: as §1, §2, §3, §4

HCC1954 = experiment: In vitro cell viability (CTG), HCC1954; format: cell-based, Human; conditions: HCC1954 cells, 72 hours, CTG assay
Procedure: as §1, §2, §3, §4

EMT-6 = experiment: In vitro cell viability (CTG), EMT-6; format: cell-based, Mouse; conditions: EMT-6 cells, 72 hours, CTG assay
Procedure: as §1, §2, §3, §4

HCT116 = experiment: In vitro cell viability (CTG), HCT116; format: cell-based, Human; conditions: HCT116 cells, 72 hours, CTG assay
Procedure: as §1, §2, §3, §4

CT-26.WT = experiment: In vitro cell viability (CTG), CT-26.WT; format: cell-based, Mouse; conditions: CT-26.WT cells, 72 hours, CTG assay
Procedure: as §1, §2, §3, §4

MKN45 = experiment: In vitro cell viability (CTG), MKN45; format: cell-based, Human; conditions: MKN45 cells, 72 hours, CTG assay
Procedure: as §1, §2, §3, §4

MFC = experiment: In vitro cell viability (CTG), MFC; format: cell-based, Mouse; conditions: MFC cells, 72 hours, CTG assay
Procedure: as §1, §2, §3, §4

786-O = experiment: In vitro cell viability (CTG), 786-O; format: cell-based, Human; conditions: 786-O cells, 72 hours, CTG assay
Procedure: as §1, §2, §3, §4

Renca = experiment: In vitro cell viability (CTG), Renca; format: cell-based, Mouse; conditions: Renca cells, 72 hours, CTG assay
Procedure: as §1, §2, §3, §4

Hep G2 = experiment: In vitro cell viability (CTG), Hep G2; format: cell-based, Human; conditions: Hep G2 cells, 72 hours, CTG assay
Procedure: as §1, §2, §3, §4

H22 = experiment: In vitro cell viability (CTG), H22; format: cell-based, Mouse; conditions: H22 cells, 72 hours, CTG assay
Procedure: as §1, §2, §3, §4

HCC827 = experiment: In vitro cell viability (CTG), HCC827; format: cell-based, Human; conditions: HCC827 cells, 72 hours, CTG assay
Procedure: as §1, §2, §3, §4

LL/2(LLC1) = experiment: In vitro cell viability (CTG), LL/2(LLC1); format: cell-based, Mouse; conditions: LL/2(LLC1) cells, 72 hours, CTG assay
Procedure: as §1, §2, §3, §4

A375 = experiment: In vitro cell viability (CTG), A375; format: cell-based, Human; conditions: A375 cells, 72 hours, CTG assay
Procedure: as §1, §2, §3, §4

B16-F10 = experiment: In vitro cell viability (CTG), B16-F10; format: cell-based, Mouse; conditions: B16-F10 cells, 72 hours, CTG assay
Procedure: as §1, §2, §3, §4

PANC-1 = experiment: In vitro cell viability (CTG), PANC-1; format: cell-based, Human; conditions: PANC-1 cells, 72 hours, CTG assay
Procedure: as §1, §2, §3, §4

Panc 02 = experiment: In vitro cell viability (CTG), Panc 02; format: cell-based, Mouse; conditions: Pance 02 cells, 72 hours, CTG assay
Procedure: as §1, §2, §3, §4

DU145 = experiment: In vitro cell viability (CTG), DU145; format: cell-based, Human; conditions: DU145 cells, 72 hours, CTG assay
Procedure: as §1, §2, §3, §4

RM-1 = experiment: In vitro cell viability (CTG), RM-1; format: cell-based, Mouse; conditions: RM-1 cells, 72 hours, CTG assay
Procedure: as §1, §2, §3, §4

[1] = system: H22 subcutaneous transplanted tumor; experiment: Pharmacodynamics of subcutaneous transplanted tumor in vivo (H22); set-up: species or system BALB/c mice
Procedure: • Animal species and strain: BALB/c mice • Drug administration history: None • Gender and age: Female, 6-7 weeks old • Breeder/supplier: Shanghai Jihui Laboratory Animal Breeding Co., Ltd. or other qualified suppliers • Experimental facility: Pengli Biology Animal Facility • Acclimation period: 3-7 days • Number of animals: 42 • Housing: SPF (Specific Pathogen Free) area • Indoor temperature: 20-26° C. • Indoor relative humidity: 40-70% • Lighting: Fluorescent lighting, 12 hours on (08:00-20:00) and 12 hours off • Animal housing: 2-6 mice per cage (same treatment group) • Food: Ad libitum access to irradiated feed (supplied by Jiangsu Xie Tong Pharmaceutical Bioengineering Co., Ltd., China) • Water: Ad libitum access to drinking water (tap water treated by reverse osmosis or autoclaving and acidified)
BALB/c mice were purchased from Shanghai Jihui Laboratory Animal Breeding Co., Ltd. for the H22 efficacy experiment. The animals were free of specific pathogens and arrived at Pengli Biology Animal Facility at approximately 5-6 weeks of age. The proposed animal handling procedures for the experimental protocol will be reviewed and approved by the IACUC (Institutional Animal Care and Use Committee) of Pengli Biology before the start of the experiment.
The H22 cell line used in this experiment was cultured in RPMI-1640 medium supplemented with 10% FBS in a CO2 incubator at 37° C. Prior to continuous culturing for ten passages, approximately 3×10^6 H22 cells were suspended in PBS and subcutaneously inoculated into each mouse at a volume of 100 μL. Mice were anesthetized with 3-4% isoflurane before inoculation.
When tumors grew to an average size of approximately 50-80 mm3, tumor-bearing mice were randomly divided into 4 groups of 8 mice each based on body weight and tumor size. The day of group assignment and drug administration was defined as Day 0. The grouping and dosing regimen are outlined in the table below.
Tumor Volume: Measure the tumor volume twice weekly after grouping for a consecutive 4 weeks. The calculation method for tumor volume (V) is as follows: V=(Length×Width^2)/2. The relative tumor volume (RTV) for each nude mouse is calculated as: RTV=Vt/V0, where Vt is the measured volume for each day and V0 is the volume at the start of treatment.
Relative Tumor Proliferation Rate (T/C %): Used to evaluate the antitumor activity of the drug. The relative tumor proliferation rate T/C (%) is calculated as the mean RTV of the treatment group (T) divided by the mean RTV of the negative control group (C), multiplied by 100%.
Tumor Growth Inhibition (TG1%): TG1%=(1−T/C)×100%, where T is the mean RTV of the treatment group and C is the mean RTV of the negative control group.

SK-OV-3 = experiment: In vitro cell viability (CTG), SK-OV-3; format: cell-based, Human; conditions: SK-OV-3 cells, 72 hours, CTG assay
Procedure: as §1, §2, §3, §4

tumor cells = experiment: In vitro cell experiment, overall statement on the tumor cell panel; format: cell-based; conditions: 21 tumor cell lines, 72 hours, CTG assay
Procedure: as §1, §2, §3, §4

N.N.[Cl][Pt][Cl] [Cisplatin, reference compound]
IC50 (T24): 3.71 µM | IC50 (MBT-2): 9.91 µM | IC50 (HCC1954): 13.2 µM | IC50 (EMT-6): 6.58 µM | IC50 (HCT116): 7.01 µM | IC50 (CT-26.WT): 7.48 µM | IC50 (MKN45): 6.7 µM | IC50 (MFC): 5.96 µM | IC50 (786-O): 3.68 µM | IC50 (Renca): 6.03 µM | IC50 (Hep G2): 8.49 µM | IC50 (H22): 2.17 µM | IC50 (HCC827): 15.1 µM | IC50 (LL/2(LLC1)): 10.6 µM | IC50 (A375): 5.36 µM | IC50 (B16-F10): 16.9 µM | IC50 (PANC-1): 13.8 µM | IC50 (Panc 02): 9.86 µM | IC50 (DU145): 3.59 µM | IC50 (RM-1): 3.83 µM | TV (tumor volume) ([1]; G2, 1 mg/kg i.v. BIW, 0 day (baseline)): 75.96 mm^3 | TGI (tumor growth inhibition) ([1]; G2, 1 mg/kg i.v. BIW, 3 days): −3.49% | TV (tumor volume) ([1]; G2, 1 mg/kg i.v. BIW, 3 days): 288.49 mm^3 | TGI (tumor growth inhibition) ([1]; G2, 1 mg/kg i.v. BIW, 5 days): 6.13% | TV (tumor volume) ([1]; G2, 1 mg/kg i.v. BIW, 5 days): 351.18 mm^3 | TGI (tumor growth inhibition) ([1]; G2, 1 mg/kg i.v. BIW, 7 days): 22.78% | TV (tumor volume) ([1]; G2, 1 mg/kg i.v. BIW, 7 days): 597.48 mm^3 | TGI (tumor growth inhibition) ([1]; G2, 1 mg/kg i.v. BIW, 10 days): 30.23% | TV (tumor volume) ([1]; G2, 1 mg/kg i.v. BIW, 10 days): 821.76 mm^3 | TGI (tumor growth inhibition) ([1]; G2, 1 mg/kg i.v. BIW, 12 days): 36.46% | TV (tumor volume) ([1]; G2, 1 mg/kg i.v. BIW, 12 days): 1081.49 mm^3 | TGI (tumor growth inhibition) ([1]; G2, 1 mg/kg i.v. BIW, 14 days): 39.56% | TV (tumor volume) ([1]; G2, 1 mg/kg i.v. BIW, 14 days): 1627.00 mm^3

Dimyricetin-yl-diselenide
IC50 (T24): 7.69 µM | IC50 (MBT-2): 10.8 µM | IC50 (HCC1954): 9.86 µM | IC50 (EMT-6): 3.16 µM | IC50 (HCT116): 5.52 µM | IC50 (CT-26.WT): 5.65 µM | IC50 (MKN45): 12 µM | IC50 (MFC): 9.55 µM | IC50 (786-O): 5.14 µM | IC50 (Renca): 5.17 µM | IC50 (Hep G2): 12.6 µM | IC50 (H22): 6.64 µM | IC50 (HCC827): 10 µM | IC50 (LL/2(LLC1)): 14.6 µM | IC50 (A375): 5.2 µM | IC50 (B16-F10): 13.1 µM | IC50 (PANC-1): 10.3 µM | IC50 (Panc 02): 14.3 µM | IC50 (DU145): 8.79 µM | IC50 (RM-1): 5.12 µM | IC50 (SK-OV-3): 6.52 µM | tumor inhibition compared with the positive control (cisplatin) ([1]; 40 mg/kg dose group): better tumor inhibition than the positive control | TV (tumor volume) ([1]; G3, 40 mg/kg s.c. QD, 0 day (baseline)): 75.71 mm^3 | TGI (tumor growth inhibition) ([1]; G3, 40 mg/kg s.c. QD, 3 days): 9.88% | TV (tumor volume) ([1]; G3, 40 mg/kg s.c. QD, 3 days): 257.17 mm^3 | TGI (tumor growth inhibition) ([1]; G3, 40 mg/kg s.c. QD, 5 days): 5.58% | TV (tumor volume) ([1]; G3, 40 mg/kg s.c. QD, 5 days): 355.24 mm^3 | TGI (tumor growth inhibition) ([1]; G3, 40 mg/kg s.c. QD, 7 days): 34.02% | TV (tumor volume) ([1]; G3, 40 mg/kg s.c. QD, 7 days): 532.85 mm^3 | TGI (tumor growth inhibition) ([1]; G3, 40 mg/kg s.c. QD, 10 days): 41.86% | TV (tumor volume) ([1]; G3, 40 mg/kg s.c. QD, 10 days): 711.79 mm^3 | TGI (tumor growth inhibition) ([1]; G3, 40 mg/kg s.c. QD, 12 days): 38.64% | TV (tumor volume) ([1]; G3, 40 mg/kg s.c. QD, 12 days): 1066.44 mm^3 | TGI (tumor growth inhibition) ([1]; G3, 40 mg/kg s.c. QD, 14 days): 60.23% | TV (tumor volume) ([1]; G3, 40 mg/kg s.c. QD, 14 days): 1108.65 mm^3 | TV (tumor volume) ([1]; G4, 20 mg/kg s.c. QD, 0 day (baseline)): 75.31 mm^3 | TGI (tumor growth inhibition) ([1]; G4, 20 mg/kg s.c. QD, 3 days): 29.01% | TV (tumor volume) ([1]; G4, 20 mg/kg s.c. QD, 3 days): 218.25 mm^3 | TGI (tumor growth inhibition) ([1]; G4, 20 mg/kg s.c. QD, 5 days): 19.28% | TV (tumor volume) ([1]; G4, 20 mg/kg s.c. QD, 5 days): 314.27 mm^3 | TGI (tumor growth inhibition) ([1]; G4, 20 mg/kg s.c. QD, 7 days): 32.35% | TV (tumor volume) ([1]; G4, 20 mg/kg s.c. QD, 7 days): 544.04 mm^3 | TGI (tumor growth inhibition) ([1]; G4, 20 mg/kg s.c. QD, 10 days): 39.14% | TV (tumor volume) ([1]; G4, 20 mg/kg s.c. QD, 10 days): 741.18 mm^3 | TGI (tumor growth inhibition) ([1]; G4, 20 mg/kg s.c. QD, 12 days): 29.67% | TV (tumor volume) ([1]; G4, 20 mg/kg s.c. QD, 12 days): 1210.83 mm^3 | TGI (tumor growth inhibition) ([1]; G4, 20 mg/kg s.c. QD, 14 days): 43.53% | TV (tumor volume) ([1]; G4, 20 mg/kg s.c. QD, 14 days): 1542.11 mm^3 | inhibitory effect on the liver cancer tumor model in vivo ([1]; H22 model, 40 and 20 mg/kg s.c.): significant inhibitory effect | inhibitory effect on tumor cells in vitro (tumor cells): significant inhibitory effect
